Laboratory results from PubChem BioAssay (NCI).
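Cultured in 96-well plates, cells were exposed to test compound for 48 hours across five concentrations. TGI: concentration producing complete growth inhibition.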

Legend:
Assay in all cases: NCI-60 cell line screen, 48 h
HOP-62 NSCLC = system: HOP-62 NSCLC
786-0 renal = system: 786-0 renal
MDA-N = system: MDA-N
U251 CNS = system: U251 CNS
NCI-H460 lung = system: NCI-H460 lung
UO-31 renal = system: UO-31 renal
MDA-MB-435 = system: MDA-MB-435
IGROV1 ovarian = system: IGROV1 ovarian
SW-620 colon = system: SW-620 colon
A549 NSCLC = system: A549 NSCLC
SR leukemia = system: SR leukemia
HCT-116 colon = system: HCT-116 colon
SNB-19 CNS = system: SNB-19 CNS
MDA-MB-231 breast = system: MDA-MB-231 breast
MALME-3M melanoma = system: MALME-3M melanoma
A498 renal = system: A498 renal
EKVX NSCLC = system: EKVX NSCLC
NCI-H522 lung = system: NCI-H522 lung
SK-OV-3 ovarian = system: SK-OV-3 ovarian
HS 578T breast = system: HS 578T breast

Measured: TGI

C[Si](C)(OCCS(=O)(=O)O)OC(=C1S(=O)(=O)OCCOS1(=O)=O)c1cccc2ccccc12
> 100 µM: HOP-62 NSCLC | 786-0 renal | MDA-N | U251 CNS | NCI-H460 lung | UO-31 renal | MDA-MB-435 | IGROV1 ovarian | SW-620 colon | A549 NSCLC | SR leukemia | HCT-116 colon | SNB-19 CNS | MDA-MB-231 breast | MALME-3M melanoma | A498 renal | EKVX NSCLC

Cc1nc(C(N)=S)sc1C(=O)CC(=O)C(=O)Nc1nc2ccccc2[nH]1
> 100 µM: HOP-62 NSCLC | 786-0 renal | U251 CNS | NCI-H460 lung | UO-31 renal | MDA-MB-435 | IGROV1 ovarian | SW-620 colon | A549 NSCLC | SR leukemia | HCT-116 colon | NCI-H522 lung | MDA-MB-231 breast | MALME-3M melanoma | SK-OV-3 ovarian | HS 578T breast | A498 renal | EKVX NSCLC

COC1O[C@H]2[C@H]3[C@@H]1[C@@H](OS(=O)(=O)c1ccc(C)cc1)C(=O)N3C[C@H]2O (stereo partly drawn)
> 100 µM: HOP-62 NSCLC | 786-0 renal | U251 CNS | NCI-H460 lung | UO-31 renal | MDA-MB-435 | SW-620 colon | A549 NSCLC | SR leukemia | HCT-116 colon | SNB-19 CNS | MDA-MB-231 breast | MALME-3M melanoma | SK-OV-3 ovarian | A498 renal | EKVX NSCLC

Brc1cc2c(cc1C1SCCS1)OCO2
> 100 µM: HOP-62 NSCLC | 786-0 renal | U251 CNS | NCI-H460 lung | UO-31 renal | IGROV1 ovarian | SW-620 colon | A549 NSCLC | SR leukemia | HCT-116 colon | SNB-19 CNS | NCI-H522 lung | MALME-3M melanoma | SK-OV-3 ovarian | A498 renal | EKVX NSCLC

COc1ccccc1/C=C1\CCC(CCN2CCOCC2)C1=O (stereo not drawn)
> 100 µM: HOP-62 NSCLC | 786-0 renal | NCI-H460 lung | UO-31 renal | IGROV1 ovarian | SW-620 colon | A549 NSCLC | SR leukemia | HCT-116 colon | SNB-19 CNS | MALME-3M melanoma | A498 renal | EKVX NSCLC

Cc1nn(C)cc1P(=S)(c1ccccc1)c1ccccc1
> 100 µM: HOP-62 NSCLC | 786-0 renal | U251 CNS | NCI-H460 lung | UO-31 renal | IGROV1 ovarian | SW-620 colon | A549 NSCLC | SR leukemia | HCT-116 colon | SNB-19 CNS | MALME-3M melanoma | SK-OV-3 ovarian | A498 renal | EKVX NSCLC

Cc1ccc(-c2nc(-c3cnccn3)n(C3OC(CO)C(O)C(O)C3O)n2)cc1 (stereo not drawn)
> 100 µM: HOP-62 NSCLC | 786-0 renal | MDA-N | U251 CNS | NCI-H460 lung | UO-31 renal | MDA-MB-435 | IGROV1 ovarian | SW-620 colon | A549 NSCLC | SR leukemia | HCT-116 colon | SNB-19 CNS | NCI-H522 lung | MDA-MB-231 breast | EKVX NSCLC

COc1ccc(C=C(c2ccc(OCc3ccccc3)cc2)c2ccc(OCc3ccccc3)cc2)cc1
> 100 µM: HOP-62 NSCLC | 786-0 renal | U251 CNS | NCI-H460 lung | UO-31 renal | IGROV1 ovarian | SW-620 colon | A549 NSCLC | SR leukemia | SNB-19 CNS | NCI-H522 lung | MALME-3M melanoma | SK-OV-3 ovarian | EKVX NSCLC

NC(N)=NS(=O)(=O)c1ccc(Nc2c3ccccc3nc3c(C(=O)Nc4ccc(S(N)(=O)=O)cc4)ccc(Cl)c23)cc1
> 100 µM: HOP-62 NSCLC | 786-0 renal | U251 CNS | NCI-H460 lung | UO-31 renal | IGROV1 ovarian | SW-620 colon | A549 NSCLC | SR leukemia | HCT-116 colon | SNB-19 CNS | NCI-H522 lung | MALME-3M melanoma | SK-OV-3 ovarian | A498 renal | EKVX NSCLC

COc1ccc(-n2c(N)c(C#N)c(C#N)c2-c2ccccc2)cc1
> 100 µM: HOP-62 NSCLC | 786-0 renal | U251 CNS | UO-31 renal | MDA-MB-435 | IGROV1 ovarian | SW-620 colon | A549 NSCLC | SR leukemia | HCT-116 colon | SNB-19 CNS | NCI-H522 lung | MDA-MB-231 breast | MALME-3M melanoma | SK-OV-3 ovarian | HS 578T breast | A498 renal | EKVX NSCLC

O=[N+]([O-])c1c(C=Nc2ccccc2)oc(-c2ccc3c(c2)OCO3)c1-c1ccc2c(c1)OCO2
> 100 µM: HOP-62 NSCLC | 786-0 renal | U251 CNS | NCI-H460 lung | UO-31 renal | IGROV1 ovarian | SW-620 colon | A549 NSCLC | SR leukemia | HCT-116 colon | SNB-19 CNS | NCI-H522 lung | MALME-3M melanoma | SK-OV-3 ovarian
